Laboratory results as given in patent US20180284095A1, “BIOMARKERS ASSOCIATED WITH LSD1 INHIBITORS AND USES THEREOF” (Oryzon Genomics, S.A., priority 2015, published 2018).

What was measured:
TUBB2C = assay: Microarray gene expression, brain of Hsd:ICR (CD1) mice, MTD study (Example 6), housekeeping gene; format: in vivo, mouse; details: brain day 5, male CD1 mice pool
Experimental: (§1) Total RNA was extracted from samples using the RNeasy extraction kit (Qiagen). The quality and concentration of the RNA was analyzed using the Agilent 2100 bioanalyzer and NanoDrop™ ND-1000 (Thermo Scientific). Samples with RNA integrity number (RIN)<6.0 were discarded. Total RNA (0.5 μg) amplification and labelling with Cy3 or Cy5 was carried out using the Eberwein mRNA amplification procedure (Van Gelder et al, Proc Natl Acad Sci USA 1990, 87:1663-1667) employing the MessageAmp™ aRNA amplification kit from Ambion (Applied Biosystems) following the manufacturer's instructions with minor modifications. As hybridization controls, plant mRNAs were transcribed from a plasmid containing the Zea mays Xet (xyloglucan endo-transglycosylase) cDNA and from a plasmid containing the Zea mays Zmmyb42 cDNA, independently prepared Cy3 and Cy5 labelled aRNA from these two RNAs using the Eberwein mRNA amplification procedure (as disclosed in Cerdà et al, Gen Comp Endocrinol 2008, 156:470-481).
(§2) The Cy3- and Cy5-labelled cRNAs and spikes were combined and hybridized to the microarray described in Example 2.6 for 17 h at 60° C. using Agilent's gaskets G2534-60002, G2534A hybridization chambers and DNA Hybridization Oven G2545A, according to the manufacturer's instructions. More specifically, equal amounts of Cy3 and Cy5 labeled Xet aRNA as well as equal amounts of Cy3 and Cy5 labeled Zmmyb42 aRNA were spiked into each mixture hybridized to the array. Arrays were washed and raw data were obtained using Agilent's DNA Microarray Scanner G2505B and Feature Extraction software (v10.1). The raw fluorescence intensity data were processed using applicant's proprietary software, and consists in the following operations:
(§3) Data normalization was carried out by an improved version of the nonlinear Q-splines normalization method (Workman et al., Genome Biol 2002, 3(9):research0048.1-0048.16). Normalization results were presented graphically as MA plots, as first described by Dudoit et al (Dudoit et al, Statistica Sinica, 2002, 12:111-139). Each point corresponds to a probe of the DNA array. M values (vertical axis) are the log-differential expression ratios. A values (horizontal axis) are the log-intensities of the spots. M and A are calculated from the Cy5 and Cy3 intensity values as of each spot. The DNA Array data is normalized using an improved version of non-linear Q-Splines normalization described by Workman et al., Genome Biol 2002, 3(9):research0048.1-0048.16. This process is useful to correct the deviation of the M values from the statistical assumption that most of the spots have M=0 in MA plots. […]. The data used to calculate the normalization fitting curve is the totality of the raw measurement dataset, excluding the signals for the probes for the spiked-in plant RNA controls and negative controls. In order to be able to normalize properly the data among all the experiments, the probe-set must include an important group of genes that should have no change (M=0) in the experiment. The normalization function is then applied to all the data, including controls.
(§4) Normalized and log-transformed data were used to calculate log 2 (sample/control) and Fold Change (FC) values. No background subtraction was applied to the signal intensity values during data processing, permitting robust selection of differentially expressed genes with low expression levels at the cost of potential sub-estimation of change when intensity levels are close to the array background level.
(§5) Male Hsd:ICR (CD1®) mice were maintained in air- and temperature-controlled cages with regular supply of water and food. A maximum of 3 mice were raised per cage. Three mice were assigned to each group. Before the first administration, each mouse was labeled and weighed. Test compounds were administered orally using 1 ml syringes using animal feeding needles proper for mice at 10 ml/kg as follows. […]

TUBB3 = assay: as above; format: in vivo, mouse; details: brain day 5, male CD1 mice pool
Experimental: as §1, §2, §3, §4, §5

[1] = 3 mg/kg oral x5 days vs vehicle
[2] = 10 mg/kg oral x5 days vs vehicle
[3] = 30 mg/kg oral x5 days vs vehicle
[4] = 100 mg/kg oral x5 days vs vehicle

Substance: (−) 5-((((trans)-2-(4-(benzyloxy)phenyl)cyclopropyl)amino)methyl)-1,3,4-oxadiazol-2-amine [Compound 1]
- Hybridization signal sample_Cy5 TUBB2C (TUBB2C; 3 mg/kg oral x5 days): 5008.03
- log2 (sample/control) TUBB2C (TUBB2C; [1]): −0.03216
- Hybridization signal sample_Cy5 TUBB2C (TUBB2C; 10 mg/kg oral x5 days): 3965.09
- log2 (sample/control) TUBB2C (TUBB2C; [2]): −0.309
- Hybridization signal sample_Cy5 TUBB2C (TUBB2C; 30 mg/kg oral x5 days): 5060.07
- log2 (sample/control) TUBB2C (TUBB2C; [3]): 0.03544
- Hybridization signal sample_Cy5 TUBB2C (TUBB2C; 100 mg/kg oral x5 days): 5579.26
- log2 (sample/control) TUBB2C (TUBB2C; [4]): 0.0424
- Hybridization signal sample_Cy5 TUBB3 (TUBB3; 3 mg/kg oral x5 days): 3553.16
- log2 (sample/control) TUBB3 (TUBB3; [1]): −0.1852
- Hybridization signal sample_Cy5 TUBB3 (TUBB3; 10 mg/kg oral x5 days): 2424.61
- log2 (sample/control) TUBB3 (TUBB3; [2]): −0.5964
- Hybridization signal sample_Cy5 TUBB3 (TUBB3; 30 mg/kg oral x5 days): 2911.46
- log2 (sample/control) TUBB3 (TUBB3; [3]): −0.1102
- Hybridization signal sample_Cy5 TUBB3 (TUBB3; 100 mg/kg oral x5 days): 3667.46
- log2 (sample/control) TUBB3 (TUBB3; [4]): −0.02579
